Experimental data: patent publication US20090004185A1, “AMINO-SUBSTITUTED QUINAZOLINE DERIVATIVES AS INHIBITORS OF BETA-CATENIN/TCF-4 PATHWAY AND CANCER TREATMENT AGENTS” (WYETH, priority 2007, published 2009)

Key:
SV40-Luc = SV40-Luc control luciferase reporter assay, SV 5A8 cell line (SV40-Luc and SV40-R-Luc), control for non-specific inhibitors; assay type: cell-based, human; conditions: SV 5A8 cells derived from SW480, 24 hours of incubation with compound, ratio Firefly/Renilla luciferase
Procedure, shortened: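 Dual-luciferase readout in SW480 lines with chromosomally integrated reporters, namely Tcf-4-driven firefly in Tcf 33.13 and Tcf 22C11, and SV40-driven firefly in SV 5A8, all with SV40-Renilla. Compound incubation is 24 h; IC50 comes from the normalised F/R ratio.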

β-catenin/Tcf-4 = test: cells; assay type: cell-based; conditions: 24 hours of incubation with compound, ratio Firefly/Renilla luciferase
Procedure, shortened: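 SW480-derived lines with integrated reporters (Tcf-4-driven firefly luciferase; SV40 firefly as specificity control; SV40 Renilla for cell number/toxicity), treated 24 hours with titrated compounds, final 0.316% DMSO. Dual-luciferase read-out; firefly/Renilla ratio as % of control, duplicate plates, IC50 (nM) from curve fit.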

[1] = Homo sapiens, SW480, 24 h, Tcf 33.13 cells derived from SW480
[2] = Homo sapiens, Tcf22C11, 24 h, Tcf 22C11 cells derived from SW480
[3] = Tcf 22C11 cells derived from SW480
[4] = Tcf 33.13 cells derived from SW480

SMILES	IC50 (SV40-Luc; Homo sapiens, SV5A8, 24 h) [nM]	IC50 (β-catenin/Tcf-4; [1]) [nM]	IC50 (β-catenin/Tcf-4; [2]) [nM]	IC50 (SV40-Luc) [nM]	IC50 (β-catenin/Tcf-4; [3]) [nM]	IC50 (β-catenin/Tcf-4; [4]) [nM]
CCCC/C=C/c1ccc2c(NCc3ccc(NC(=O)c4ccc(F)cc4)cc3)nc(N(C)C)nc2c1 [Example 103, N-{4-[({2-(dimethylamino)-7-[(1E)-hex-1-en-1-yl]quinazolin-4-yl}amino)methyl]phenyl}-4-fluorobenzamide]	> 4680	429	615	–	–	–
CCN(CC)c1nc(NCc2ccc(NC(=O)c3ccc(F)cc3)cc2)c2ccc(C)cc2n1 [Example 211, N-[4-({[2-(diethylamino)-7-methylquinazolin-4-yl]amino}methyl)phenyl]-4-fluorobenzamide]	> 2730	396	558	–	–	–
Cc1c(F)ccc2c(NCc3ccc(NC(=O)c4ccc(Cl)nc4)cc3)nc(N(C)C)nc12 [Example 64, 6-chloro-N-[4-({[2-(dimethylamino)-7-fluoro-8-methylquinazolin-4-yl]amino}methyl)phenyl]nicotinamide]	> 10800	8960	11100	–	–	–
Cc1ccc2nc(N3CCCCCC3)nc(NCc3ccc(NC(=O)c4ccc(F)cc4)cc3)c2c1 [Example 56, N-(4-{[(2-azepan-1-yl-6-methylquinazolin-4-yl)amino]methyl}phenyl)-4-fluorobenzamide]	> 5170	2010	1740	–	–	–
CN(C)c1nc(NCc2ccc(NC(=O)c3ccc(Cl)nc3)cc2)c2cc(I)ccc2n1 [Example 72, 6-chloro-N-[4-({[2-(dimethylamino)-6-iodoquinazolin-4-yl]amino}methyl)phenyl]nicotinamide]	> 4470	456	534	–	–	–
O=C(Nc1ccc(CNc2nc(NCc3ccco3)nc3ccc(C(F)(F)F)cc23)cc1)c1ccc(Cl)cc1 [Example 168, 4-chloro-N-[4-({[2-[(2-furylmethyl)amino]-6-(trifluoromethyl)quinazolin-4-yl]amino}methyl)phenyl]benzamide]	> 9060	1280	2810	–	–	–
COCCN(C)c1nc(NCc2ccc(NC(=O)c3ccc(F)cc3)cc2)c2ccc(C)cc2n1 [Example 220, 4-fluoro-N-{4-[({2-[(2-methoxyethyl)(methyl)amino]-7-methylquinazolin-4-yl}amino)methyl]phenyl}benzamide]	> 8510	682	1140	–	–	–
CN(C)c1nc(NCc2ccc(NC(=O)c3ccc(F)cc3)cc2)c2cc(/C=C\c3ccccc3)ccc2n1 [Example 171]	–	–	–	> 19300	2940	4280
CN(C)c1nc(NCc2ccc(NC(=O)c3ccc(F)cc3)cc2)c2ccc(C3CC3)cc2n1 [Example 104, N-[4-({[7-cyclopropyl-2-(dimethylamino)quinazolin-4-yl]amino}methyl)phenyl]-4-fluorobenzamide]	> 2540	666	1010	–	–	–
CC(C)c1ccc2c(NCc3ccc(NC(=O)C4CCN(Cc5ccccc5)CC4)cc3)nc(N(C)C)nc2c1 [Example 63, 1-benzyl-N-[4-({[2-(dimethylamino)-7-isopropylquinazolin-4-yl]amino}methyl)phenyl]piperidine-4-carboxamide]	> 8720	1190	2150	–	–	–
O=C(Nc1ccc(CNc2nc(N3CCC3)nc3ccc(C(F)(F)F)cc23)cc1)c1ccc(Cl)cc1 [Example 162, N-[4-({[2-azetidin-1-yl-6-(trifluoromethyl)quinazolin-4-yl]amino}methyl)phenyl]-4-chlorobenzamide]	> 9770	2230	3580	–	–	–
CN(C)c1nc(NCc2ccc(NC(=O)c3ccc(F)cc3)cc2)c2ccc(-c3ccc(C=O)cc3)cc2n1 [Example 99, N-[4-({[2-(dimethylamino)-7-(4-formylphenyl)quinazolin-4-yl]amino}methyl)phenyl]-4-fluorobenzamide]	> 17900	2680	6820	–	–	–
Cc1ccc2nc(N3CCCC3)nc(NCc3ccc(NC(=O)C4CCN(Cc5ccccc5)CC4)cc3)c2c1 [Example 77, 1-benzyl-N-(4-{[(6-methyl-2-pyrrolidin-1-ylquinazolin-4-yl)amino]methyl}phenyl)piperidine-4-carboxamide]	> 8230	847	2260	–	–	–
Cc1ccc2c(NCc3ccc(NC(=O)c4ccc(F)cc4)cc3)nc(N3CCN(Cc4ccc5c(c4)OCO5)CC3)nc2c1 [Example 215, N-{4-[({2-[4-(1,3-benzodioxol-5-ylmethyl)piperazin-1-yl]-7-methylquinazolin-4-yl}amino)methyl]phenyl}-4-fluorobenzamide]	> 12000	3190	1960	–	–	–
CCN(CC)c1nc(NCc2ccc(NC(=O)c3ccc(F)cc3)cc2)c2ccccc2n1 [Example 122, N-[4-({[2-(diethylamino)quinazolin-4-yl]amino}methyl)phenyl]-4-fluorobenzamide]	> 11300	1260	2290	–	–	–
Cc1ccc2c(NCc3ccc(NC(=O)C4CCN(Cc5ccccc5)CC4)cc3)nc(N3CCNC(CCO)C3)nc2c1 (stereo not drawn) [Example 138, 1-benzyl-N-{4-[({2-[3-(2-hydroxyethyl)piperazin-1-yl]-7-methylquinazolin-4-yl}amino)methyl]phenyl}piperidine-4-carboxamide]	> 8420	2120	2280	–	–	–
Cc1ccc2c(NCc3ccc(NC(=O)c4ccc(F)cc4)cc3)nc(N3CCN(c4ccccc4)CC3)nc2c1 [Example 212, 4-fluoro-N-[4-({[7-methyl-2-(4-phenylpiperazin-1-yl)quinazolin-4-yl]amino}methyl)phenyl]benzamide]	> 12900	2680	3100	–	–	–
CN(C)c1nc(NCc2ccc(NC(=O)C3CCN(Cc4ccc(F)cc4)CC3)cc2)c2cc(C(F)(F)F)ccc2n1 [Example 154, N-[4-({[2-(dimethylamino)-6-(trifluoromethyl)quinazolin-4-yl]amino}methyl)phenyl]-1-(4-fluorobenzyl)piperidine-4-carboxamide]	> 8610	4190	3590	–	–	–
Cc1ccc2c(NCc3ccc(NC(=O)c4ccc(F)cc4)cc3)nc(NCCCN3CCN(C)CC3)nc2c1 [Example 229, 4-fluoro-N-(4-{[(7-methyl-2-{[3-(4-methylpiperazin-1-yl)propyl]amino}quinazolin-4-yl)amino]methyl}phenyl)benzamide]	> 4620	2320	2190	–	–	–
CCOC(=O)N1CCN(c2nc(NCc3ccc(NC(=O)c4ccc(F)cc4)cc3)c3cc(C)ccc3n2)CC1 [Example 54, Ethyl 4-[4-({4-[(4-fluorobenzoyl)amino]benzyl}amino)-6-methylquinazolin-2-yl]piperazine-1-carboxylate]	> 18400	846	1230	–	–	–
CN1CCN(c2nc(NCc3ccc(NC(=O)c4ccc(F)cc4)cc3)c3ccccc3n2)CC1 [Example 116, 4-fluoro-N-[4-({[2-(4-methylpiperazin-1-yl)quinazolin-4-yl]amino}methyl)phenyl]benzamide]	> 21300	3040	3440	–	–	–
C[C@H](Nc1nc(N(C)C)nc2cc(I)ccc12)c1ccc(NC(=O)c2ccc(Cl)nc2)cc1 [Example 105, 6-chloro-N-[4-((1S)-1-{[2-(dimethylamino)-7-iodoquinazolin-4-yl]amino}ethyl)phenyl]nicotinamide]	> 8210	1470	3780	–	–	–
CNc1nc(NCc2ccc(NC(=O)c3ccc(F)c(F)c3)cc2)c2c(C)cccc2n1 [Example 189, 3,4-difluoro-N-[4-({[5-methyl-2-(methylamino)quinazolin-4-yl]amino}methyl)phenyl]benzamide]	> 4570	1140	1830	–	–	–
O=C(Nc1ccc(CNc2nc(N3CCCC3)nc3ccc(C(F)(F)F)cc23)cc1)c1ccc(Cl)cc1 [Example 163]	–	–	–	> 9510	6990	6550
CNc1nc(NCc2ccc(NC(=O)c3ccccc3F)cc2)c2cc(C)ccc2n1 [Example 47, 2-fluoro-N-[4-({[6-methyl-2-(methylamino)quinazolin-4-yl]amino}methyl)phenyl]benzamide]	> 24100	12800	12000	–	–	–
CN(C)c1nc(NCc2ccc(NC(=O)C3CCN(Cc4ccccc4)CC3)cc2)c2ccccc2n1 [Example 146, 1-benzyl-N-[4-({[2-(dimethylamino)quinazolin-4-yl]amino}methyl)phenyl]piperidine-4-carboxamide]	> 10100	1770	2000	–	–	–
Cc1ccc2c(NCc3ccc(NC(=O)c4ccc(F)cc4)cc3)nc(N(C)CCCN(C)C)nc2c1 [Example 201, N-{4-[({2-[[3-(dimethylamino)propyl](methyl)amino]-7-methylquinazolin-4-yl}amino)methyl]phenyl}-4-fluorobenzamide]	> 4990	664	1310	–	–	–
Cc1ccc2c(N[C@H](C)c3ccc(NC(=O)c4ccc(F)cc4)cc3)nc(N(C)C)nc2c1 [Example 272, (R)—N-(4-(1-(2-(dimethylamino)-7-methylquinazolin-4-ylamino)ethyl)phenyl)-4-fluorobenzamide]	> 5420	986	894	–	–	–
